The record followed here is patent US6753337B2, “Alkynyl containing hydroxamic acid compounds as matrix metalloproteinase/tace inhibitors” (Wyeth Holdings Corporation, priority 1999, dated 2004).

Structures can show the parent of a compound that is named as a salt.

In the case of `CC#CCOc1ccc(S(=O)(=O)C2(C(=O)NO)CCN(Cc3ccc(Cl)c(Cl)c3)CC2)cc1` (as salt: HCl) [Example 10, 4-(4-But-2-ynyloxy-benzenesulfonyl)-1-(3,4-dichloro-benzyl)-piperidine-4-carboxylic acid hydroxyamide], the melting point (commonly the temperature, or range, at which the solid turns liquid) turned out to be 213 °C.

For the compound `CCCCCC#CCOc1ccc(S(=O)(=O)C2(C(=O)NO)CCN(Cc3ccc(Br)cc3)CC2)cc1` (as salt: hydrochloride) [Example 6, 1-(4-Bromo-benzyl)-4-(4-oct-2-ynyloxy-benzenesulfonyl)-piperdine-4-carboxylic acid hydroxyamide], the melting point stood at 140 °C.
